In ChEMBL document CHEMBL3045422, “Synthesis, characterization, and antimicrobial screening of some Mannich base sydnone derivatives” (2013):
≈ marks a conversion by molar mass, not a printed value.

Key:
Candida albicans [1] = test system: Candida albicans
Candida albicans [2] = test system: Candida albicans; remark: listed apart in the source
Escherichia coli [3] = assay: microbe, parasite or virus in culture; type: functional
Description: Antibacterial activity against Escherichia coli

Bacillus subtilis [4] = assay: microbe, parasite or virus in culture; type: functional
Description: Antibacterial activity against Bacillus subtilis

Pseudomonas aeruginosa [5] = assay: microbe, parasite or virus in culture; type: functional
Description: Antibacterial activity against Pseudomonas aeruginosa

Candida albicans [6] = assay: Antifungal activity against Candida albicans at 300 ug/ml; type: functional; details: read-out: IZ
Pseudomonas aeruginosa [7] = assay: microbe, parasite or virus in culture; type: functional; details: read-out: IZ
Description: Antibacterial activity against Pseudomonas aeruginosa at 300 ug/ml

Staphylococcus aureus [8] = assay: microbe, parasite or virus in culture; type: functional; details: read-out: IZ
Description: Antibacterial activity against Staphylococcus aureus at 300 ug/ml

Candida albicans [9] = assay: microbe, parasite or virus in culture; type: functional
Escherichia coli [10] = assay: microbe, parasite or virus in culture; type: functional; details: read-out: IZ
Description: Antibacterial activity against Escherichia coli at 300 ug/ml

Staphylococcus aureus [11] = assay: microbe, parasite or virus in culture; type: functional
Description: Antibacterial activity against Staphylococcus aureus

Bacillus subtilis [12] = assay: microbe, parasite or virus in culture; type: functional; details: read-out: IZ
Description: Antibacterial activity against Bacillus subtilis at 300 ug/ml

Row | Compound | MIC (Candida albicans [1]) [µg/mL] | IZ (Candida albicans [2]) [mm] | MIC (Escherichia coli [3]) [µg/mL] | MIC (Bacillus subtilis [4]) [µg/mL] | MIC (Pseudomonas aeruginosa [5]) [µg/mL] | zone of inhibition at 300 µg/mL (Candida albicans [6]) [mm] | zone of inhibition at 300 µg/mL (Pseudomonas aeruginosa [7]) [mm] | zone of inhibition at 300 µg/mL (Staphylococcus aureus [8]) [mm] | MIC (Candida albicans [9]) [µg/mL] | zone of inhibition at 300 µg/mL (Escherichia coli [10]) [mm] | MIC (Staphylococcus aureus [11]) [µg/mL] | zone of inhibition at 300 µg/mL (Bacillus subtilis [12]) [mm]
1 | NYSTATIN | 100 | 28 | – | – | – | – | – | – | – | – | – | –
2 | COc1ccc(-[n+]2noc([O-])c2CNc2ccc(Br)cc2)cc1 | – | – | 300 (≈ 797 µM) | 200 (≈ 532 µM) | 200 (≈ 532 µM) | 15 | 13 | 10 | 200 (≈ 532 µM) | 12 | 300 (≈ 797 µM) | 13
3 | COc1ccc(-[n+]2noc([O-])c2CNc2ccc(C)cc2)cc1 | – | – | 200 (≈ 642 µM) | 200 (≈ 642 µM) | 200 (≈ 642 µM) | 16 | 13 | 13 | 200 (≈ 642 µM) | 13 | 200 (≈ 642 µM) | 14
4 | COc1ccc(-[n+]2noc([O-])c2Cn2c(-c3ccc(Cl)c(Cl)c3)nc3ccccc32)cc1 | – | – | 300 (≈ 642 µM) | 200 (≈ 428 µM) | 300 (≈ 642 µM) | 15 | 14 | 11 | 200 (≈ 428 µM) | 13 | 300 (≈ 642 µM) | 12
5 | COc1ccc(-[n+]2noc([O-])c2CNc2nc3ccc(F)cc3s2)cc1 | – | – | 300 (≈ 806 µM) | 200 (≈ 537 µM) | 500 (≈ 1340 µM) | 13 | 10 | 12 | 200 (≈ 537 µM) | 12 | 300 (≈ 806 µM) | 12
6 | COc1ccc(-[n+]2noc([O-])c2CNc2ccc(Cl)cc2)cc1 | – | – | 300 (≈ 904 µM) | 200 (≈ 603 µM) | 300 (≈ 904 µM) | 18 | 13 | 12 | 80 (≈ 241 µM) | 13 | 200 (≈ 603 µM) | 13
7 | COc1ccc(-[n+]2noc([O-])c2Cn2c(-c3cccc(Br)c3)nc3ccccc32)cc1 | – | – | 300 (≈ 629 µM) | 500 (≈ 1050 µM) | 500 (≈ 1050 µM) | 14 | 10 | 10 | 200 (≈ 419 µM) | 12 | 500 (≈ 1050 µM) | 10
8 | COc1ccc(-[n+]2noc([O-])c2Cn2c(-c3ccc([N+](=O)[O-])cc3)nc3ccccc32)cc1 | – | – | 60 (≈ 135 µM) | 300 (≈ 677 µM) | 300 (≈ 677 µM) | 12 | 12 | 10 | 200 (≈ 451 µM) | 18 | 500 (≈ 1130 µM) | 12
9 | COc1ccc(-[n+]2noc([O-])c2Cn2c(-c3ccc(OC)c([N+](=O)[O-])c3)nc3ccccc32)cc1 | – | – | 200 (≈ 422 µM) | 500 (≈ 1060 µM) | 200 (≈ 422 µM) | 16 | 16 | 10 | 200 (≈ 422 µM) | 14 | 500 (≈ 1060 µM) | 10
